In US20080107625A1, “Inhibitors of Hepatitis C Virus” (Bristol-Myers Squibb Company, priority 2006, published 2008):

Legend:
[1] = molecular target: T1, HCV NS3/4A protease complex, H77 strain (Hepatitis C virus genotype 1a, UniProt P27958, C1454S/C1711G); assay: FRET peptide assay to monitor HCV NS3/4A proteolytic activity (H77 strain); type: biochemical; conditions: H77 strain (1a genotype)
T1 construct: recombinant HCV NS3/4A protease complex (amino acids 1027 to 1711) for these strains; His-tag (inferred from pET21b vector and Ni-NTA purification); made in house; host or cells: Escherichia coli BL21 (DE3), pET21b
T1 sequence (P27958 1027-1711 C1454S/C1711G, one chain of several): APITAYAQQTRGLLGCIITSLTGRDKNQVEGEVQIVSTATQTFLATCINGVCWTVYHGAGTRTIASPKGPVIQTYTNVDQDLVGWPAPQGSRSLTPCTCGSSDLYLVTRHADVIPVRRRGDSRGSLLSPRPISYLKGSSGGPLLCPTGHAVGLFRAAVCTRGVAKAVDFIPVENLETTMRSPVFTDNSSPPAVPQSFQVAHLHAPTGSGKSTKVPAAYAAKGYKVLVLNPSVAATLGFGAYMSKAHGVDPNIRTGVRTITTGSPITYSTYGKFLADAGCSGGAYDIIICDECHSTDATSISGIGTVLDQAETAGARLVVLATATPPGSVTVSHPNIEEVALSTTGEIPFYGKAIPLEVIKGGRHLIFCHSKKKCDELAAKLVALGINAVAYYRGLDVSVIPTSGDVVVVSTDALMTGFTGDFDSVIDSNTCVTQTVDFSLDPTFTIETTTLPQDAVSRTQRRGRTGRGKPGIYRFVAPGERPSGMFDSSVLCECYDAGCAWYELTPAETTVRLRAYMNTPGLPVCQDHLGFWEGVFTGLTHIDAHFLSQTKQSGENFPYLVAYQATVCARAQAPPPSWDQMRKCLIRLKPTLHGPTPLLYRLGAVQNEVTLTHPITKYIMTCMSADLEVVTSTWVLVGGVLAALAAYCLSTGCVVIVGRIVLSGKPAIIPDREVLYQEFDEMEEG
Description: HCV NS3 protease complexes, derived from the BMS strain, H77 strain or J4L6S strain, were generated, as described below. These purified recombinant proteins were generated for use in a homogeneous assay (see below) to provide an indication of how effective compounds of the present disclosure would be in inhibiting HCV NS3 proteolytic activity.
The H77 and J4L6S strains were used for production of recombinant NS3/4A protease complexes. DNA encoding the recombinant HCV NS3/4A protease complex (amino acids 1027 to 1711) for these strains were manipulated as described by P. Gallinari et al. (see Gallinari P, Paolini C, Brennan D, Nardi C, Steinkuhler C, De Francesco R. Biochemistry. 38(17):5620-32, (1999)). Briefly, a three-lysine solubilizing tail was added at the 3′-end of the NS4A coding region. The cysteine in the P1 position of the NS4A-NS4B cleavage site (amino acid 1711) was changed to a glycine to avoid the proteolytic cleavage of the lysine tag. Furthermore, a cysteine to serine mutation was introduced by PCR at amino acid position 1454 to prevent the autolytic cleavage in the NS3 helicase domain. […]

[2] = molecular target: T2, human neutrophil elastase (HNE) (Homo sapiens, UniProt P08246); assay: Specificity assay, neutrophil elastase; type: biochemical; conditions: read-out: HLE activity in the specificity assay (IC50)
T2 construct: purchased Sigma or EMDbiosciences
T2 sequence (P08246 30-267): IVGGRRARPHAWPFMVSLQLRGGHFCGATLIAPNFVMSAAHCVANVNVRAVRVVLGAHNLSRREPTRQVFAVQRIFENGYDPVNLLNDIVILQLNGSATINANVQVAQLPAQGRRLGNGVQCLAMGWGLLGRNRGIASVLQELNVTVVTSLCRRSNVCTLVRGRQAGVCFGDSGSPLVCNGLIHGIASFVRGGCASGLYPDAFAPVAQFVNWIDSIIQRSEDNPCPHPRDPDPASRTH
Description: The specificities of compounds of the present disclosure were determined against a variety of serine proteases: human neutrophil elastase (HNE), porcine pancreatic elastase (PPE) and human pancreatic chymotrypsin and one cysteine protease: human liver cathepsin B. In all cases, a 96-well plate format protocol using colorimetric p-nitroaniline (pNA) substrate or fluorometric Amino-Methyl-Coumarin (AMC) substrate, specific for each enzyme was used as described previously (PCT Patent Application No. WO 00/09543) with some modifications. All enzymes were purchased from Sigma or EMDbiosciences while the substrates were from Bachem.
Each pNA assay included a 2 h enzyme-inhibitor pre-incubation at room temperature followed by addition of substrate and hydrolysis to ˜15% conversion as measured on a Spectramax Pro microplate reader. The cathepsin B assay was initiated by adding substrate to a 10 min enzyme-inhibitor pre-incubation at room temperature, and the assay plate measured immediately using the Cytofluor Series 4000. Compound concentrations varied from 100 to 0.4 μM depending on their potency.
50 mM Tris(hydroxymethyl)aminomethane hydrochloride (Tris-HCl) pH 8, 0.5 M Sodium Sulfate (Na2SO4), 50 mM NaCl, 0.1 mM EDTA, 3% DMSO, 0.01% Tween-20 with: […]
The percentage of inhibition was calculated using the formula: [1−((UVinh−UVblank)/(UVctl−UVblank))]×100 […]

## CC(C)(C)OC(=O)N[C@H]1CN(C2CC2)CCC/C=C\C2C[C@@]2(C(=O)NS(=O)(=O)C2CC2)NC(=O)[C@@H]2C[C@@H](Oc3ccccn3)CN2C1=O (some centres unmarked) [Compound 1]
[1]
  IC50: 0.018 µM
[2]
  IC50: > 100 µM
